We go through 1 molecule from patent publication US20060094676A1, “Compositions and methods for treating cancer using compositions comprising an inhibitor of endothelin receptor activity” (priority 2004, published 2006).

Structures are written as SMILES. Non-standard residues stand in square brackets, D forms with d. Residues, ends and D or L forms follow the SMILES beside them.

This assay concerns VEGF. The experiment in a line: Real-time RT-PCR of VEGF transcripts. The assay is classed as cell-based, human. Conditions: BQ123 in combination with BQ788; melanoma cell lines of the study; data not shown. The protocol: Equal amounts of RNA from cells that were treated with BQ788 for 3 days were subjected to real-time RT-PCR analysis for the detection VEGF (A), HIF-1α (B) and Gravin (C) transcripts. Differences in expression levels are shown as x fold change and are statistically significant (p<0.05) unless a column in marked as non significant (N.S.). Sections of two representative tumors derived from a human melanoma cell line grown in nude mice and injected either with vehicle (D) or BQ788 (E) were stained with anti CD-31 to highlight blood vessels (brown staining, Lahav et al, 1999).
RNA was prepared from the different cell lines in different culture conditions using SV total RNA isolation kit (Promega) according to the manufacturer's protocol. For each sample RNA concentration was determined using the total RNA nano procedure of an Agilent bioanalyzer. A stock of SK-MEL-28 RNA aliquots was prepared containing 10, 20, 50, 100, 200, 500 and 1000 ng/12 μl for use as a standard curve and kept in −80° C. For the experimental unknown samples, a stock of 100 ng/12 μl RNA aliquots from each cell line and condition was prepared and stored at −80° C. For each real-time experiment one series of standard curve and unknown experimental series of aliquots was put on ice for use. Complementary DNA was prepared by adding to each tube 0.5 μl of random hexamers (Promega) and 1 μl of 10 mM dNTP mix (Promega) and incubating at 65° C. for 5 min. 4 μl of 5× M-MLV buffer (Promega), 1 μl of the RNase inhibitor RNasin (Promega) and 1 μl of M-MLV RT RNase H (Promega) were then added and the solution was incubated at 42° C. for 50 min followed by 15 min at 70° C. For real time reactions 15 μl of each cDNA sample were transferred to 3 wells in a 386 well plate. To each well we added 10 μl of TaqMan universal PCR master mix (Applied Biosystems), 1 μl of primers+probe mix (Assays-on-Demand from Applied Biosystems: EDNRB Hs00240747, BCL-2A1 Hs00187845, PARP-3 Hs00154151, VEGF Hs00173626, HIF-1α Hs00153153 and Gravin Hs00374507) and 4 μl of nuclease free water (Promega). Wells containing water instead of cDNA served as negative controls. The samples were subjected to 40 cycles of 15 sec at 95° C. and 1 min at 60° C. A standard curve of Ct versus RNA quantity was established and accordingly the Ct in the unknown samples was correlated to quantity of transcript.
Real-time PCR analysis confirmed that VEGF expression levels increased 18-fold in BQ788 treated LN-met cells and 65-fold in SK-MEL-28 cells, compared to only 2-fold in primary melanoma, and no change in the Cut-met line (FIG. 5). The changes in VEGF expression levels can be explained, at least in part, by changes in the expression levels of its known regulator hypoxia inducible factor-1 oc (HIF-1α) (Maxwell, et al., Oxygen sensors and angiogenesis, Semin. Cell Dev. Biol., 13:29-37 (2002)). […]
A general note: Real-time PCR tracks product formation cycle by cycle.

Regarding `CC(C)C[C@@H]1NC(=O)[C@@H](C(C)C)NC(=O)[C@@H]2CCCN2C(=O)[C@@H](CC(=O)O)NC(=O)[C@@H](Cc2c[nH]c3ccccc23)NC1=O` [BQ123] (cyclo(L[dW][dD]P[dV])), the “VEGF RNA levels compared to BQ788 alone” value was “did not result in changes”.
